Experimental data as given in patent US12655131B2, “Pyrazinecarboxamide analog compounds for use in treating cancer” (NOVAPANO, LLC, priority 2019, dated 2026).

Key:
[1] = test system: HCT 116 colorectal carcinoma cells; assay: Cell proliferation assay (resazurin) in HCT 116 cells; format: cell-based; conditions: Homo sapiens, 72 hr compound incubation, inhibition of proliferation
Method: (§1) HCT 116 colorectal carcinoma cells (ECACC/Sigma-Aldrich #91091005) were seeded in medium (McCoy's 5a+10% FBS) at a cell count of 1500 cells per 100 μL per well in a 96 well edge plate (ThermoFisher #167425). Cells were cultured at 37° C. for 24 hr in 5% CO2 environment (culture conditions) in a Nuaire incubator (humidified). Serially diluted test compounds (100 μL) within the desired testing concentration range (e.g., 0.014-30 μM) were added to the culture plate and the cells were further incubated in culture conditions for 72 hr. The experiment was terminated at the designated incubation time by replacing the medium with 100 μL, of 1 mM resazurin (Sigma-Aldrich #R7017) prepared in culture medium, and the plates were further incubated in culture conditions for 4-6 hr. Fluorescence was recorded using a multimodal plate reader (Biotek Synergy Neo) at an excitation wavelength of 535 nm and emission wavelength of 590 nm to obtain relative fluorescence units.
(§2) Data were analyzed as follows: the background fluorescence (blank containing only medium) value was subtracted from each reading and normalized with the vehicle control ([…]treated cells) to obtain percent survival/proliferation. Percent survival was subtracted from 100 to get the percent inhibition of proliferation which was used to calculate IC50 values.

[2] = test system: MIA PaCa-2 human pancreatic carcinoma cells; assay: Cell proliferation assay (resazurin) in MIA PaCa-2 cells; format: cell-based; conditions: 96 hr compound incubation, inhibition of proliferation
Method: as §1, §2
Testing in MIA PaCa-2 human pancreatic carcinoma cells (ATCC® CRL-1420™) was done identically, except that the medium used was DMFM+10% FBS+2.5% horse serum, the cells were seeded at a cell count of 3000 cells per 100 μL per well and the test compound incubation time was 72 or 96 hr. The potency of compounds in other cell lines may be determined in an analogous manner.

[3] = Microsome stability, human liver microsomes; format: in vitro ADME; conditions: NADPH, 37 °C, pH 7.4, read-out: hLM CLint (μg/min/mg)
Method: (§3) In a 96 deep well plate, 2.5 μL of 20 μM of each test compound in potassium phosphate buffer (pH 7,4) with 2% 1:9 DMSO:acetonitrile were added to 5 μL of 5 mg/mL microsomes (human liver microsomes (hLM), rat liver microsomes (rLM), or mouse liver microsomes (mLM)) and 37.5 μL of 100 mM prewarmed phosphate buffer (pH 7.4). Time point 0 (T0) samples were immediately quenched with 200 μL of chilled acetonitrile containing 50 ng/mL of internal standard. 5 4, of 10 mM NADPH was added to all other samples to start the reaction. The plate was incubated in a reciprocating water bath at 37 ° C. on 50 rpm for the duration of the assay. The remaining samples were quenched with 200 μL of chilled acetonitrile containing 50 ng/mL of internal standard at various timepoints. The samples were analyzed by LC-MS/MS (Sciex API 4500 QTrap). The % remaining, terminal elimination rate constant (K), half-life (t1/2), and intrinsic clearance (CLint) were calculated.

[4] = Microsome stability, rat liver microsomes; format: in vitro ADME; conditions: NADPH, 37 °C, pH 7.4, read-out: rLM CLint (μg/min/mg)
Method: as §3

[5] = Microsome stability, mouse liver microsomes; format: in vitro ADME; conditions: NADPH, 37 °C, pH 7.4, read-out: mLM CLint (μg/min/mg)
Method: as §3

| SMILES | IC50 [1] [µM] | IC50 [2] [µM] | microsomal CLint at 1 µM [3] [µL/min/mg] | microsomal CLint at 1 µM [4] [µL/min/mg] | microsomal CLint at 1 µM [5] [µL/min/mg] |
| --- | --- | --- | --- | --- | --- |
| N/C(=N\C(=O)c1nc(Cl)c(NCc2ccc(I)cc2)nc1N)NCC1CCN(CCc2ccccc2)CC1 [Compound 51, 3-amino-N-(amino(((1-phenethylpiperidin-1-yl)methyl)amino)methylene)-6-chloro-5-((4-iodobenzyl)amino)pyrazine-2-carboxamide] | 0.69 | 1.9 | 52 | 29 | 67 |
| N/C(=N\C(=O)c1nc(Cl)c(NCc2ccc(I)cc2)nc1N)NCCCOc1ccc(Cl)cc1 [Compound 52, 3-amino-4-(amino(3-(4-chlorophenoxy)propylamino)methylene)-6-chloro-5-(4-iodobenzylamino)pyrazine-2-carboxamide] | 1.33 | 2.92 | 20 | 49 | 81 |
| Nc1nc(NCc2ccc(I)cc2)c(Cl)nc1C(=O)NCCN1CCN(Cc2ccccc2)CC1 [Compound 1, 3-amino-N-(2-(4-benzylpiperazin-1-yl)ethyl)-6-chloro-5-(4-iodobenzylamino) pyrazine-2-carboxamide] | 16.3 | 30.9 | 258 | 201 | 176 |
